In patent US20050074879A1, “Antisense oligonucleotide modulation of STAT3 expression” (priority 2000, published 2005):
Oligonucleotides are written 5' to 3', each unit as a sugar letter and its base; * is a phosphorothioate linkage, no mark a phosphodiester; rarer units and linkages stand in square brackets, end groups in braces. Plain capitals give the bases only. e = 2'-O-(2-methoxyethyl) (MOE); [5mC] = 5-methylcytosine; d = 2'-deoxy (DNA)

What was measured:
[1] = system: Mouse STAT3 mRNA; test: Inhibition of mouse STAT3 mRNA expression in BCL1 cells (electroporation; RNase protection/Northern blot); assay type: cell-based; set-up: % mRNA INHIBITION: dose or concentration left out as unconfirmed; settings: BCL1 cells electroporated with oligonucleotide, RNA collected 24 hours later
Method: The B lymphoma cell line, BCL1 was obtained from ATCC (Rockville, Md.). BCL1 cells were cultured in RPMI 1640 medium.
BCL1 cells (5×10^6 cells in PBS) were transfected with oligonucleotides by electroporation, at 200V, […]. using a BTX Electro Cell Manipulator 600 (Genetronics, San Diego, Calif.). For an initial screen, BCL1 were electroporated with […] oligonucleotide and RNA collected 24 hours later. Controls without oligonucleotide were subjected to the same electroporation conditions.
Total cellular RNA was isolated using the RNEASY7 kit (Qiagen, Santa Clarita, Calif.). RNAse protection experiments were conducted using RIBOQUANT™ kits and template sets according to the manufacturer's instructions (Pharmingen, San Diego, Calif.). Northern blotting was performed as described in Chiang, M-Y. et al. (J. Biol. Chem., 1991, 266, 18162-18171), using a rat cDNA probe prepared by Xho I/Sal I restriction digest of psvsport-1 plasmid (ATCC, Rockville, Md.). mRNA levels were quantitated using a PhosphorImager (Molecular Dynamics, Sunnyvale, Calif.).

[2] = system: Human STAT3 mRNA; test: Inhibition of human STAT3 mRNA expression in U266 cells, Northern blot; assay type: cell-based; settings: for % mRNA INHIBITION / % mRNA EXPRESSION: U266 cells, 2.5 μM oligonucleotide, electroporation, 24 hours; for % mRNA EXPRESSION: percent of control
Method: U266 human myeloma cell lines (originally obtained from American Type Culture Collection) were maintained in RPMI 1640 medium supplemented with 10% fetal calf serum. Cells (15×10^6 cells in PBS) were transfected with oligonucleotides at 200V with a single 6-millisecond pulse using a BTX Electro Square Porator T820 (Genetronics, San Diego Calif.). The cells were incubated for 24 hours before RNA extraction.
Total cellular RNA was isolated using the Rneasy kit (Qiagen, Santa Clarita, Calif.). Northern blotting was perfomed on 15 μg of RNA using a cDNA probe prepared from MB-MDA 468 RNA by standard RT-PCR followed by a nested primer reaction. Signals were quantitated using a Molecular Dynamics Phosphorimager.
In order to examine the importance of STAT3 expression in multiple myeloma cells, a series of 20mer STAT3 antisense oligonucleotides were designed and synthesized, using phosphorothioate chemistry and incorporating 2′-O-methoxyethyl modifications to improve hybridization affinity and nuclease resistance.

Substance	% mRNA INHIBITION [1] [%]	% mRNA EXPRESSION ([1]; control 100%) [%]	Percent inhibition of STAT3 expression ([2]; Oligo concentration 2.5 μM) [%]	Percent inhibition of STAT3 expression ([2]; Oligo concentration 5 μM) [%]	Percent inhibition of STAT3 expression ([2]; Oligo concentration 10 μM) [%]	% mRNA INHIBITION [2] [%]	% mRNA EXPRESSION [2] [%]
17148 (antisense ACTCAAACTGCCCTCCTGCT; listed as DNA, chemistry not fully specified) [compound 17148]	31	69	8	54	60	4.9	95.1
113184 (antisense e[5mC]*eG*e[5mC]*e[5mC]*eT*d[5mC]*dT*dT*d[5mC]*d[5mC]*dA*dG*dT*d[5mC]*dA*eG*e[5mC]*e[5mC]*eA*eG) [compound 113184]							104.3
113187 (antisense e[5mC]*e[5mC]*eG*e[5mC]*eT*d[5mC]*d[5mC]*dA*d[5mC]*d[5mC]*dA*d[5mC]*dA*dA*dA*eG*eG*e[5mC]*eA*e[5mC]) [compound 113187]			44	56	75	44.1	55.9
113189 (antisense eT*eT*eG*eT*eG*dT*dT*dT*dG*dT*dG*d[5mC]*d[5mC]*d[5mC]*dA*eG*eA*eA*eT*eG) [compound 113189]							163.9
113207 (antisense eA*eT*e[5mC]*eA*e[5mC]*d[5mC]*d[5mC]*dA*d[5mC]*dA*dT*dT*d[5mC]*dA*d[5mC]*eT*e[5mC]*eA*eT*eT) [compound 113207]							123.6
